The numbers were not newly measured in patent publication US20240115713A1, “POLYETHYLENE GLYCOL CONJUGATE DRUG, AND PREPARATION METHOD THEREFOR AND USE THEREOF” (CHONGQING UPGRA BIOTECHNOLOGY CO., LTD., priority 2020, published 2024), which cites them from elsewhere.

For the data set, the target named is FA receptors. To be noted: read-out: Kd, binding affinity to the FA receptors.

For `Nc1nc2ncc(CNc3ccc(C(=O)N[C@@H](CCC(=O)O)C(=O)O)cc3)nc2c(=O)[nH]1` [FA, folic acid], the Kd is approximately 100 pM.
